Data from article PMC5859730, “Dual targeting of the cancer antioxidant network with 1,4-naphthoquinone fused Gold(I) N-heterocyclic carbene complexes” (Chemical Science, 2017).
“And” between values parts separate entries of the source, which are not always exact repeats. Identical values can stand only once. Like-named read-outs stand apart in the source and are kept apart here.

Assays:
2780CP ovarian = test: Cell proliferation (MTT assay) in 2780CP ovarian cells; assay type: cell-based, human; settings: Homo sapiens; isogenic to A2780, multi-drug resistance; Table 3
Description: (§1) Further anti-proliferation studies were carried out with complex 1 and its naphthoquinone component 4[H][Cl] using the following cell lines: A2780 ovarian (a wt-p53 cell line sensitive to platinum treatment), 2780CP ovarian (isogenic to A2780 but expressing multi-drug resistance (MDR)), and PC-3 prostate (p53 null) (Table 3).
(§2) Biological preparations and assays
(§3) Experimental compound preparation. Stock solutions of complexes 1–3, 4[H][Cl], auranofin (Tocris Bioscience 4600), and doxorubicin (Tocris Bioscience 2252) were dissolved in DMSO (2.5–10 mM, depending on the compound and its solubility), aliquoted, and stored at -80 °C prior to use.
(§4) Biological Materials and Cell Lines. Cell lines were obtained from the ATCC (A549 and PC-3) and Prof.
(§5) Zahid Siddik at M.D. Anderson Cancer Center (A2780 and A2780CP). Cell culture plastic ware (i.e. T-75 flasks, treated 6-well plates, treated 96-well plates, and cell scrapers) were obtained from Fisher Scientific. […]
(§6) were made. […] The medium was then removed, the resulting formazan was dissolved in […] DMSO and the respective absorbances were measured at 560–650 nm using a microplate reader (Molecular Devices, Sunnyvale, CA). Absorbance values were corrected for background and then normalized to wells containing untreated cells to allow for plate-to-plate comparisons. […]

A549 cells = test: Detection of intracellular ROS by flow cytometry (CM-H2DCFDA); assay type: cell-based, human; settings: for Increase in intracellular ROS (fluorescence cell population shift): A549, 2.5 μM, 6 h incubation, CM-H2DCFDA; for Intracellular ROS increase, in words: A549, 0.625–2.5 μM, 6 h
A549 lung cancer cells [1] = test: Cell proliferation (MTT assay) in A549 lung cancer cells; assay type: cell-based, human; settings: for Fold less potent than 1 in cell proliferation: A549
Description: To gauge the ability of each complex to inhibit cancer cell growth, A549 lung cancer cells were treated with 1–3, 4[H][Cl], doxorubicin, and auranofin in a dose responsive manner. Cellular vitality (i.e., mitochondrial reductase activity) was then quantified colorimetrically post treatment using 3-(4,5-dimethylthiazol-2-yl)-2,5-diphenyltetrazolium bromide (MTT assay) (Table 2, Fig. 5).
as §2, §3, §4
Zahid Siddik at M.D. Anderson Cancer Center (A2780 and A2780CP). Cell culture plastic ware (i.e. T-75 flasks, treated 6-well plates, treated 96-well plates, and cell scrapers) were obtained from Fisher Scientific. Cell were cultured in RPMI 1640 culture medium (+2mM glutamine, +25mM HEPES, Corning 10041cv) supplemented with 10% heat-inactivated fetal bovine serum (RMBIO FBS-BBT) and 1X penicillin-streptomycin (Sigma p4333). Unless otherwise noted, incubators were set to 37°C and 5% CO2.
Trypsin (HyClone SH30236.01) and 1X Phosphate Buffered Saline (HyClone SH30258.02, diluted in autoclaved deionized water) were utilized for general cell line maintenance and harvesting. Trace Metal […]
Cell Proliferation Studies. Cells were harvested and seeded into 96-well culture plates (Costar 07-200-90) in 100µL of culture media. They were allowed to incubate overnight at 37 °C in the presence of 5% CO2. […]
and PC-3 at 2000 cells/well. […]
were made. To each well of a 96 well plate was added 100 µL of the appropriate solution. After a total of three days, a […] aliquot of 3 mg/mL tetrazolium dye, 3-(4,5-dimethylthiazol-2-yl)-2,5-diphenyltetrazolium bromide (Alfa Aesar L11939) was added to each well, followed by a 4 hr incubation period at 37 °C. The medium was then removed, the resulting formazan was dissolved in […] DMSO and the respective absorbances were measured at 560–650 nm using a microplate reader (Molecular Devices, Sunnyvale, CA). Absorbance values were corrected for background and then normalized to wells containing untreated cells to allow for plate-to-plate comparisons. The data are shown as mean inhibition of proliferation or growth as a percentage of control cells and are from 2–3 replicate experiments. Resulting dose response curves were subjected to linear regression analysis (Origin by OriginLab, Inc.) for determination of IC50 values.

A2780 ovarian = test: Cell proliferation (MTT assay) in A2780 ovarian cells; assay type: cell-based, human; settings: Homo sapiens, A2780; wt-p53, platinum sensitive; Table 3
Description: as §1, §2, §3, §4, §5, §6

[2] = tested on: DNA duplex (5'CCGCAGCCA3'/5'TGGCTGCGG3'); test: Thermal denaturation of a DNA duplex; assay type: binding; settings: 1 molar equivalent, 5 μM complex and duplex
[3] = tested on: thioredoxin reductase (TrxR); settings: 6 h exposure; for Inhibition of TrxR at higher concentrations: A549, 1.25–5.0 μM, lipoate reduction; for Inhibition of TrxR at low concentrations: A549, 0.1–0.6 μM, lipoate reduction over 180 min
Description: Briefly, plateau phase A549 cells were exposed to variable doses of complexes 1, 3, 4[H][Cl], a 2 : 1 molar ratio of 4[H][Cl] and 5 (cocktail), auranofin, and doxorubicin for 6 h. Post treatment, the live cells were monitored colorimetrically over 180 min for their ability to reduce lipoate (Fig. 8a).

[4] = Differential pulse voltammetry, quinone reduction potentials; assay type: physicochemical; settings: DMSO, 0.1 M [N(nBu)4][PF6], 0.1 mM analyte, vs. SCE; for E 1/2 a (V) DPV: first reduction, semiquinone radical (NQ˙–); for E 1/2 b (V) DPV: second reduction, quinone dianion (NQ2–)
Description: A series of electrochemical analyses, including cyclic voltammetry (CV) and differential pulse voltammetry (DPV), were carried out with [NnBu4][PF6] in anhydrous dimethyl sulfoxide (DMSO) in order to evaluate electronic properties of compounds 1–3 and 4[H][Cl]. […] These electrochemical features were attributed to the reduction of the quinone moiety to first produce the semiquinone radical (NQ^–) and then produce the quinone dianion (NQ^2–) forms of compounds 1–3 and 4[H][Cl].[70],[71] The quinone reduction potential in 4[H][Cl] occurs at –0.38 V, the lowest of all the molecules studied, indicative of a positively charged imidazolium ring. The quinone couple at –0.42 V observed for compound 1 is ascribed to the presence of bis(NHC). The same wave in compound 3 appears at a more negative potential (–0.47 V), presumably due to greater trans effects excreted by quinone annulated NHC ligand than the metal-bound chloride. This analysis agrees well with the differences in the observed δ^13C (Au–Ccarbene) resonances for compounds 1 and 3. […]
mM) as referenced to SCE (internal standard Fc0/+, adjusted to 0.435 V vs. SCE).

PC-3 prostate = test: Cell proliferation (MTT assay) in PC-3 prostate cells; assay type: cell-based, human; settings: Homo sapiens, Prostate cell; p53 null; Table 3
Description: as §1, §2, §3, §4, §5, §6

A549 lung cancer cells [5] = test: ICP-MS detection of intracellular Au (cellular uptake)
[6] = Serum protein binding: free Au in fetal bovine serum by ICP-MS; assay type: in vitro ADME; settings: 25 μM in FBS, 37 °C, methanolic extracts, up to 100 h
Description: To assess potential drug protein interactions, samples of fetal bovine serum (FBS) were treated with 25 μM 1, 3, and auranofin prior to incubating at 37 °C. Aliquots were taken and the free Au (non-protein bound, methanolic extracts) content was analyzed by ICP-MS (Fig. 6b).
Serum Protein Binding Studies.
aliquots were stored at -80°C.
in an Edvotek microcentrifuge. […] Samples
Detection of ROS by Flow Cytometry.
cells were treated with vehicle only.
g) at 5 °C. […] The pellet was
Control samples of unstained cells,
overnight. […] Post incubation, the media was
After incubation, the dye-
Cells were then imaged fluorescently
Lipoate Inhibition Assays.
well culture plates. […] The next day, appropriate
were added to each well. […] Afterwards, the liquid was then

[7] = A549, ratio of IC50 to that of 1 (Table 2)
[8] = A549 lung cancer cells, MTT, 72 h, read-out: IC50

Row | Structure (SMILES) | IC50 (2780CP ovarian) [nM] | Increase in intracellular ROS (fluorescence cell population shift) (A549 cells) [fold] | Fold less potent than 1 in cell proliferation (A549 lung cancer cells [1]) | Fold difference relative to 1 (A549 lung cancer cells [1]; [7]) | IC50 (A549 lung cancer cells [1]; Homo sapiens, A549, 72 h, A549 lung cancer cells, MTT, 72 h, read-out: IC50) [nM] | IC50 (A549 lung cancer cells [1]; Homo sapiens, A549, Table 3, error = standard error from the mean, read-out: IC50 A549 lung) [nM] | IC50 (A2780 ovarian) [nM] | Thermal stabilization of DNA [2] | Inhibition of TrxR at higher concentrations [3] | E 1/2 a (V) DPV [4] | E 1/2 b (V) DPV [4] | IC50 (PC-3 prostate) [nM] | Increase in intracellular Au concentration as compared to complex 1 (A549 lung cancer cells [5]; A549, regardless of dose) | Intracellular ROS increase, in words (A549 cells) | IC50 (A549 lung cancer cells [1]; [8]) [nM] | Free Au (non-protein bound) content over time [6] | Inhibition of TrxR at low concentrations [3] | Intracellular Au levels (uptake), in words (A549 lung cancer cells [5]) | Intracellular Au levels (uptake), in words (A549 lung cancer cells [5]; A549, ICP-MS) | Fold difference relative to 1 (A549 lung cancer cells [1])
1 | Cc1cc(C)c(-n2c[n+](-c3c(C)cc(C)cc3C)c3c2C(=O)c2ccccc2C3=O)c(C)c1 [4[H][Cl], 1,3-dimesitylnaphthoquinimidazolium] | 626 ± 117 | ~11 | ~14 fold | 13.6 | 990 ± 120 | 994 ± 120 | 159 ± 58 | no thermal stabilization | became evident | –0.38 V | –1.15 V | 136 ± 20 |  |  |  |  |  |  |  | 
2 | CC(=O)OC[C@H]1O[C@@H]([S-])[C@H](OC(C)=O)[C@@H](OC(C)=O)[C@@H]1OC(C)=O.CCP(CC)CC.[Au+] [Auranofin, reference compound] |  |  | 23 fold | 22.9 |  |  |  |  |  |  |  |  | 2–5 fold | minimal or no ROS increase | 1670 | decreased in a time dependent manner | inhibition of TrxR was apparent |  |  | 
3 | Cc1cc(C)c(-n2c3c(n(-c4c(C)cc(C)cc4C)[c]2=[Au]([Cl])=[c]2n(-c4c(C)cc(C)cc4C)c4c(n2-c2c(C)cc(C)cc2C)C(=O)c2ccccc2C4=O)C(=O)c2ccccc2C3=O)c(C)c1 [Complex 2, [bis(1,3-dimesityl-4,5-naphthoquino-imidazol-2-ylidene)-gold(I)] chloride] |  |  |  | 1 |  |  |  |  |  | –0.46 V | –1.31 V |  |  |  | 75 |  |  |  |  | 
4 | Cc1cc(C)c(-n2c3c([n+](-c4c(C)cc(C)cc4C)[c]2[Au-][Cl])C(=O)c2ccccc2C3=O)c(C)c1 [Complex 3, 1,3-dimesityl-4,5-naphthoquino-imidazol-2-ylidene)-gold(I) chloride] |  |  | > 150 fold and 165 fold | 165 |  |  |  |  | remained inactive | –0.47 V | –1.31 V |  |  | minimal or no ROS increase | 12100 |  |  | no intracellular Au was detected |  | 
5 | Cc1cc(C)c(-[n+]2ccn(Cc3ccccc3)[c]2[Au-][c]2n(Cc3ccccc3)cc[n+]2-c2c(C)cc(C)cc2C)c(C)c1.[Cl-] [Complex 5, bis(1-benzyl-3-mesityl-imidazol-2-ylidene)-gold(I) chloride, reference compound] |  | ~11 | ~10 fold | 9.72 |  |  |  |  | became evident |  |  |  |  |  | 710 |  |  |  | identical | 
6 | COc1cccc2c1C(=O)c1c(O)c3c(c(O)c1C2=O)C[C@@](O)(C(=O)CO)C[C@@H]3O[C@H]1C[C@H](N)[C@H](O)[C@H](C)O1 [Doxorubicin, reference compound] |  |  |  |  |  |  |  | Significant DNA stabilization | remained inactive |  |  |  |  | minimal or no ROS increase |  |  | little to no inhibition |  |  | 1.41
